Laboratory results published in publication PMC3681751, “Identification of a Novel Antimicrobial Peptide from Human Hepatitis B Virus Core Protein Arginine-Rich Domain (ARD)” (PLoS Pathogens, 2013).
Converted amounts (≈) assume the structure as drawn. Where two headings read alike, the source gives them in different places. Positions of bridges follow the written chain, without caps; N, C: chain ends. Non-standard residues stand in square brackets, D forms with d. Residues, ends and D or L forms follow the SMILES beside them. *: point of attachment. X1 = CC[C@H](C)CCCCC(=O)*; Dab = NCC[C@H](N)C(=O)O

What was measured:
P. aeruginosa NHRI-04 = format: cell-based, Pseudomonas aeruginosa; settings: Colistin sensitive strain; colistin susceptibility by broth-dilution (CLSI)
Text: (§1) Clinical isolates of Pseudomonas aeruginosa (NHRI-01, NHRI-02 and NHRI-04) were obtained through the program of Taiwan Surveillance of Antimicrobial Resistance (TSAR), National Health Research Institutes (NHRI), Taiwan. Acinetobacter baumannii (ATCC 17989, ATCC 17978 CR, ATCC19606, ATCC 19606 CR, TCGH 45530 and TCGH 46709) were obtained from Tzu-Chi Buddhist General Hospital (TCGH) in Taiwan, and clinical isolates (TCGH 45530 and TCGH 46709) were identified using the Vitek system (Biomerieux Vitek, Inc., Hazelwood, MO, USA). A. baumannii is defined as multidrug-resistant, when the organism is resistant to piperacillin, piperacillin-tazobactam, ampicillin/sulbactam, imipenem, ceftazidime, gentamicin, amikacin, tetracycline, chloramphenicol, ciprofloxacin, and cotrimoxazole. Susceptibility to colistin was determined using the broth-dilution method, in accordance with the guidelines of the Clinical and Laboratory Standards Institute (CLSI).
(§2) All peptides were purchased from Yao-Hong Biotechnology Inc. (Taipei, Taiwan). Vendors provided data of peptide characterizations, including HPLC and Mass (data not shown). Antimicrobial activity was determined as described with some modifications as detailed below. Bacteria were grown overnight in Mueller–Hinton broth (Difco) at 37°C, and during the mid-logarithmic phase, bacteria were diluted to 10^6 CFU (colony formation unit)/ml in phosphate buffer (10 mM sodium phosphate and 50 mM sodium chloride, pH 7.2). Peptides were serially diluted in the same buffer. Fifty microliter (µl) of bacteria was mixed with fifty µl of peptides at varying concentrations followed by incubation at 37°C for 3 hours without shaking. At the end of incubation, bacteria were placed on Mueller-Hinton broth agar plates, and allowed growth at 37°C overnight for measurement of minimal bactericidal concentration (MBC). […] All peptides were tested in triplicate.

P. aeruginosa NHRI-02 = format: cell-based, Pseudomonas aeruginosa; settings: Colistin sensitive strain; colistin susceptibility by broth-dilution (CLSI)
Text: as §1, §2

P. aeruginosa NHRI-01 = format: cell-based, Pseudomonas aeruginosa; settings: Colistin resistant strain; colistin susceptibility by broth-dilution (CLSI)
Text: as §1, §2

A. baumannii ATCC17978 = format: cell-based, Acinetobacter baumannii; settings: Reference strain; colistin susceptibility by broth-dilution (CLSI)
Text: as §1, §2

A. baumannii TCGH46709 = format: cell-based, Acinetobacter baumannii; settings: Clinical isolate, multidrug resistance; colistin susceptibility by broth-dilution (CLSI)
Text: as §1, §2

A. baumannii ATCC19606 = format: cell-based, Acinetobacter baumannii; settings: Reference strain; colistin susceptibility by broth-dilution (CLSI)
Text: as §1, §2

A. baumannii TCGH45530 = format: cell-based, Acinetobacter baumannii; settings: Clinical isolate, multidrug resistance; colistin susceptibility by broth-dilution (CLSI)
Text: as §1, §2

[1] = system: A. baumannii ATCC19606 CR; format: cell-based, Acinetobacter baumannii; settings: Induced Colistin resistant strain; colistin susceptibility by broth-dilution (CLSI)
Text: as §1, §2

[2] = system: A. baumannii ATCC17978 CR; format: cell-based, Acinetobacter baumannii; settings: Induced Colistin resistant strain; colistin susceptibility by broth-dilution (CLSI)
Text: as §1, §2

[3] = system: P. aeruginosa (ATCC 9027); format: cell-based, Pseudomonas aeruginosa
Protocol: (§3) The antimicrobial activities of HBc ARD peptides were tested using a number of bacterial strains from ATCC, including Pseudomonas aeruginosa Migula strain (ATCC 27853, ampicillin-resistant), Pseudomonas aeruginosa Migula strain (ATCC 9027, ampicillin-resistant), Klebsiella pneumoniae strain (ATCC 17593), Escherichia coli strain (ATCC 25922), Staphylococcus aureus subsp. strain (ATCC 25923, methicillin-resistant), Staphylococcus aureus subsp. strain (ATCC 29213, methicillin-resistant), Staphylococcus aureus subsp. strain (ATCC 19636, methicillinresistant), and Candida albicans strain (ATCC 10231).
as §2

[4] = system: P. aeruginosa (ATCC 27853); format: cell-based, Pseudomonas aeruginosa
Protocol: as §3, §2

E. coli (ATCC 25922) = format: cell-based, Escherichia coli; settings: 3 h at 37°C in phosphate buffer pH 7.2; triplicate
Protocol: as §3, §2

[5] = system: K. pneumonia (ATCC 13884); format: cell-based, Klebsiella pneumoniae
P. aeruginosa = test: SYTOX Green uptake (membrane permeabilization); format: cell-based, Pseudomonas aeruginosa; settings: 0.5, 1 and 2 µM, dose-dependent; triplicates
Protocol: Briefly, bacteria (10^7 CFU) were prepared and mixed with 1 µM SYTOX Green (Invitrogen) for 15 minutes in the dark. […] Melittin (Sigma), the major toxin of bee venom, was used as a positive control to provide maximal permeabilization.

[6] = ampicillin-resistant strain, 3 h at 37°C in phosphate buffer pH 7.2, triplicate

SMILES	MBC (P. aeruginosa NHRI-04)	MBC (P. aeruginosa NHRI-02)	MBC (P. aeruginosa NHRI-01)	MBC (A. baumannii ATCC17978)	MBC (A. baumannii TCGH46709)	MBC (A. baumannii ATCC19606)	MBC (A. baumannii TCGH45530)	MBC [1]	MBC [2]	Antimicrobial activity, MBC ([3]; ATCC 9027, 3 h, pH 7.2)	Antimicrobial activity, MBC [3, 6]	MBC against P. aeruginosa ([3]; summary over the P. aeruginosa strains of Table 1 (ATCC 9027, ATCC 27853))	Antimicrobial activity, MBC ([4]; ATCC 27853, 3 h, pH 7.2)	Antimicrobial activity, MBC [4, 6]	Antimicrobial activity, MBC (E. coli (ATCC 25922))	Antimicrobial activity, MBC ([5]; 3 h at 37°C in phosphate buffer pH 7.2, triplicate)	Antimicrobial activity, MBC ([5]; ATCC 13884, 3 h, pH 7.2)	Time to membrane permeabilization (SYTOX Green uptake) (P. aeruginosa)
CC[C@H](C)CCCCC(=O)N[C@@H](CCN)C(=O)N[C@H](C(=O)N[C@@H](CCN)C(=O)N[C@H]1CCNC(=O)[C@H]([C@@H](C)O)NC(=O)[C@H](CCN)NC(=O)[C@H](CCN)NC(=O)[C@H](CC(C)C)NC(=O)[C@@H](CC(C)C)NC(=O)[C@H](CCN)NC1=O)[C@@H](C)O [Colistin] (X1-[Dab]T[Dab][Dab][Dab][dL]L[Dab][Dab]T; lactam 4-C (inferred); N-terminus assumed)	4 µg/mL (≈ 3.42 µM)	4 µg/mL (≈ 3.42 µM)	>8 µg/mL	4 µg/mL (≈ 3.42 µM)	>8 µg/mL	2 µg/mL (≈ 1.71 µM)	>8 µg/mL	8 µg/mL (≈ 6.84 µM)	>8 µg/mL									
C[C@@H](O)[C@H](NC(=O)[C@H](CCCNC(=N)N)NC(=O)[C@H](CCCNC(=N)N)NC(=O)[C@H](CCCNC(=N)N)NC(=O)[C@@H]1CCCN1C(=O)[C@H](CO)NC(=O)[C@H](CCCNC(=N)N)NC(=O)CN)C(=O)N1CCC[C@H]1C(=O)N[C@@H](CO)C(=O)N1CCC[C@H]1C(=O)N[C@@H](CCCNC(=N)N)C(=O)N[C@@H](CCCNC(=N)N)C(=O)N[C@@H](CCCNC(=N)N)C(=O)N[C@@H](CCCNC(=N)N)C(=O)N[C@@H](CO)C(=O)N[C@@H](CCC(N)=O)C(=O)N[C@@H](CO)C(=O)N1CCC[C@H]1C(=O)N[C@@H](CCCNC(=N)N)C(=O)N[C@@H](CCCNC(=N)N)C(=O)N[C@@H](CCCNC(=N)N)C(=O)N[C@@H](CCCNC(=N)N)C(=O)N[C@@H](CO)C(=O)O [HBc153-176] (H-GRSPRRRTPSPRRRRSQSPRRRRS-OH; N-terminus and C-terminus assumed)										1 to 2 µM	3 to 6 µg/mL	strong activity	1 to 2 µM	3 to 6 µg/mL	48 µg/mL	> 96 µg/mL	> 32 µM	≤ 10 min
CC[C@H](C)CCCCC(=O)N[C@@H](CCN)C(=O)N[C@H](C(=O)N[C@@H](CCN)C(=O)N[C@H]1CCNC(=O)[C@H]([C@@H](C)O)NC(=O)[C@H](CCN)NC(=O)[C@H](CCN)NC(=O)[C@H](CC(C)C)NC(=O)[C@@H](Cc2ccccc2)NC(=O)[C@H](CCN)NC1=O)[C@@H](C)O [Polymyxin B] (X1-[Dab]T[Dab][Dab][Dab][dF]L[Dab][Dab]T; lactam 4-C (inferred); N-terminus assumed)	2 µg/mL (≈ 1.66 µM)	2 µg/mL (≈ 1.66 µM)	4 µg/mL (≈ 3.32 µM)	4 µg/mL (≈ 3.32 µM)	>8 µg/mL	2 µg/mL (≈ 1.66 µM)	8 µg/mL (≈ 6.65 µM)	>8 µg/mL	8 µg/mL (≈ 6.65 µM)									
